Test results: patent US10160771B2, “Hepatitis C virus inhibitors and uses thereof in preparation of drugs” (priority 2014, dated 2018)

How the values were obtained:
[1] = system: HCV genotype 1a (HCV-1a) replicon cells; test: HCV genotype 1a replicon luciferase assay (EC50); assay type: cell-based, hepatitis C virus genotype 1a (H77 clone); details: Hepatitis C virus, 72 h, 3 days, luciferase (Bright-Glo)
Outline: (§1)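 Replicon cells, 8000/well, 3 d, 37 °C; 6-pt 5-fold dilution from 100, 10 or 1 nM, 0.5% DMSO, duplicates; Bright-Glo luminescence → EC50 (nonlinear fit). 1a = H77 K1691R/K2040R/S2204I; 1b = Con1 E1202G/T1280I/K1846T.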

[2] = Cell Titer-fluor cell activity assay in HCV-1b replicon cells (CC50); assay type: cell-based
Outline: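 CC50 derived by nonlinear fitting of inhibition % from Cell Titer-fluor signal (405/515 nm, 30 min). Cells: genotype 1b Con1 replicon carrying E1202G, T1280I, K1846T, seeded 8000/well with compound for 3 days, 37 °C, 0.5% DMSO; 6 points, 5-fold dilution, top 100, 10 or 1 nM, duplicates.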

[3] = system: HCV genotype 1b (HCV-1b) replicon cells; test: HCV genotype 1b replicon luciferase assay (EC50); assay type: cell-based, hepatitis C virus genotype 1b (Con1 clone); details: Hepatitis C virus, 72 h, 3 days, luciferase (Bright-Glo)
Outline: as §1

Row | Structure (SMILES) | EC50 [1] | CC50 at 3 days [2] | EC50 [3]
1 | COC(=O)N[C@H](C(=O)N1CCC[C@H]1c1ncc(-c2ccc(-c3ccc(-c4cnc([C@H]5C6CCC(C6)[C@@H]5C(=O)NCc5ccc(C(C)C)nc5)[nH]4)cc3)cc2)[nH]1)C(C)C (stereo partly drawn) [AA_236_A] | 10 to 100 nM | > 1 nM | 0.001 to 0.1 nM
2 | COC(=O)N[C@H](C(=O)N1CCC[C@H]1c1ncc(-c2ccc(-c3ccc(-c4cnc([C@@H]5C6CCC(C6)[C@H]5C(=O)NCc5ccc(C(C)C)nc5)[nH]4)cc3)cc2)[nH]1)C(C)C (stereo partly drawn) [AA_236_B] | 10 to 100 nM | > 1 nM | 0.101 to 1 nM
3 | COC(=O)N[C@H](C(=O)N1CCC[C@H]1c1ncc(-c2ccc(-c3ccc(-c4cnc([C@H]5C6CCC(C6)[C@@H]5C(=O)Nc5ccccc5)[nH]4)cc3)cc2)[nH]1)C(C)C (stereo partly drawn) [AA_237_A] | 10 to 100 nM | > 1 nM | 0.101 to 1 nM
4 | COC(=O)N[C@H](C(=O)N1CCC[C@H]1c1ncc(-c2ccc3c(c2)C(F)(F)c2cc(-c4cnc(C5C6CCC(C6)[C@H]5C(=O)NCc5cccnc5)[nH]4)ccc2-3)[nH]1)C(C)C (stereo partly drawn) [AA_238] | 1 to 10 nM | > 1 nM | 0.001 to 0.1 nM
5 | COC(=O)N[C@H](C(=O)N1CCC[C@H]1c1ncc(-c2ccc3c(c2)C(=O)c2cc(-c4cnc(C5C6CCC(C6)[C@H]5C(=O)NCc5cccnc5)[nH]4)ccc2-3)[nH]1)C(C)C (stereo partly drawn) [AA_239] | 1 to 10 nM | > 1 nM | 0.001 to 0.1 nM
6 | COC(=O)N[C@H](C(=O)N1CCC[C@H]1c1ncc(-c2ccc3c(c2)[C@@](C)(O)c2cc(-c4cnc(C5C6CCC(C6)[C@H]5C(=O)NCc5cccnc5)[nH]4)ccc2-3)[nH]1)C(C)C (stereo partly drawn) [AA_241_A] | 10 to 100 nM | > 1 nM | 0.101 to 1 nM
7 | COC(=O)N[C@H](C(=O)N1CCC[C@H]1c1ncc(-c2ccc(-c3ccc(-c4cnc(C5C6CCC(C6)[C@@H]5c5nc(-c6cccnc6)c[nH]5)[nH]4)cc3)cc2)[nH]1)C(C)C (stereo partly drawn) [AA_242] | 10 to 100 nM | > 1 nM | 0.101 to 1 nM
8 | COC(=O)N[C@H](C(=O)N1CCC[C@H]1c1ncc(-c2ccc(-c3ccc(-c4cnc([C@H]5C6CCC(C6)C5C(=O)NCc5cccnc5)[nH]4)cc3)nc2)[nH]1)[C@@H](C)OC (stereo partly drawn) [AA_242_A] | 10 to 100 nM | > 1 nM | 0.101 to 1 nM
9 | COC(=O)N[C@H](C(=O)N1CCC[C@H]1c1ncc(-c2ccc(-c3ccc(-c4cnc([C@@H]5C6CCC(C6)C5C(=O)NCc5cccnc5)[nH]4)cc3)nc2)[nH]1)[C@@H](C)OC (stereo partly drawn) [AA_242_B] | 10 to 100 nM | > 1 nM | 0.101 to 1 nM
10 | COC(=O)N[C@H](C(=O)N1CCC[C@H]1c1ncc(-c2ccc(-c3ccc(-c4cnc([C@H]5C6CCC(C6)[C@@H]5C(=O)NC(CO)c5ccccn5)[nH]4)cc3)cc2)[nH]1)C(C)C (stereo partly drawn) [AA_243_A] | 10 to 100 nM | > 1 nM | 0.001 to 0.1 nM
11 | COC(=O)N[C@H](C(=O)N1CCC[C@H]1c1ncc(-c2ccc(-c3ccc(-c4cnc([C@@H]5C6CCC(C6)[C@H]5C(=O)NC(CO)c5ccccn5)[nH]4)cc3)cc2)[nH]1)C(C)C (stereo partly drawn) [AA_243_B] | 0.101 to 1 nM | > 1 nM | 0.001 to 0.1 nM
12 | COC(=O)N[C@H](C(=O)N1CCC[C@H]1c1ncc(-c2ccc(-c3ccc(-c4cnc([C@@H]5[C@H]6CC[C@H](C6)[C@H]5C(=O)N[C@@H](CO)c5cccnc5)[nH]4)cc3)cc2)[nH]1)C(C)C [AA_243_ENDOA2_A] | 1 to 10 nM | > 1 nM | 0.001 to 0.1 nM
13 | COC(=O)N[C@H](C(=O)N1CCC[C@H]1c1ncc(-c2ccc(-c3ccc(-c4cnc([C@@H]5[C@H]6CC[C@H](C6)[C@H]5C(=O)N[C@H](CO)c5cccnc5)[nH]4)cc3)cc2)[nH]1)C(C)C [AA_243_ENDOA2_B] | 0.101 to 1 nM | > 1 nM | 0.001 to 0.1 nM
14 | COC(=O)N[C@H](C(=O)N1CCC[C@H]1c1ncc(-c2ccc(-c3ccc(-c4cnc([C@H]5C6CCC(C6)[C@@H]5C(=O)NNc5nccnc5Cl)[nH]4)cc3)cc2)[nH]1)C(C)C (stereo partly drawn) [AA_244_A] | 10 to 100 nM | > 1 nM | 0.101 to 1 nM
